Reference: patent US20120142763A1, “NUCLEIC ACID DELIVERY COMPOSITIONS AND METHODS OF USE THEREOF” (THE REGENTS OF THE UNIVERSITY OF CALIFORNIA, priority 2009, published 2012)
Read-outs that look alike come from different tables or passages of the source.

Experiments:
[1] = Solubility of charge-protected oligonucleotide in salt solution; assay type: physicochemical

For “SEQ ID NO:23: RNAi against GFP comprising SEQ ID NO:23 having N1-U-SATE nucleotides; 21 mer charge-protected oligonucleotide (CCACUACCUGAGCACCCAGTTTUGGUGAUGGACUCGUGGGUC; contains N1-U-SATE charge-protected nucleotides, positions not given here)”, the “solubility in salt solution” value [1] was “soluble in salt solution”, the “inhibition of expression of GFP (dose response curves)” value (GFP; at 24 hours) was “inhibition of expression of GFP” and the “inhibition of expression of GFP (dose response curves)” value (GFP; at 48 hours) was “inhibition of expression of GFP”.
